Reference: patent US8877452B2, “Nitrite-reductase (NIRB) as potential anti-tubercular target and a method to detect the severity of tuberculosis disease” (priority 2013, dated 2014)
Where two headings read alike, the source gives them in different places.

Tests used:
[1] = tested on: Mycobacterium tuberculosis in THP-1 macrophage; format: cell-based
THP-1 macrophages = experiment: Cytotoxic effect on THP-1 macrophages, DAPI fluorescence microscopy; format: cell-based, Human; details: 100 μM; 10 days of treatment; compared with untreated control
Procedure: The THP1 macrophages were treated with 100 μM of p-HMB (Inhibitor) and incubated for 10 days and then stained with DAPI dye before taking pictures under a fluorescent microscope. The control cells were treated with the vehicle only under identical conditions.
THP-1 macrophage cells were grown on cover slip in 8 well microplates and washed twice with chilled methanol followed by staining with 4′,6-diamidino-2-phenylindole (DAPI) at final concentration of 300 nM. Macrophage cells were kept for 15 min at room temperature under dark condition. After incubation, cells were washed three times with distilled water and analyzed under the fluorescence microscope (Leitz Wetzlar model, Germany) at 350 nm excitation and 450 nm emission wavelengths (400×) using ‘A’ filter.
To investigate the host THP-1 macrophage cells condition due to its exposure to p-HMB inhibitor before considering its effective and specific inhibition of bacilli in macrophage infection models, fluorescence microscopic picture of THP-1 cells treated with p-HMB (100 μM) was compared with the untreated control after staining with DAPI (4′,6-diamidino-2-phenylindole). Fluorescence images were taken after 10th day of inhibitor treatment.

[2] = tested on: Mycobacterium tuberculosis

Compound	decrease in intracellular viable bacilli count compared to control (without inhibitor) [1] [log difference]	cytotoxic effect on macrophage (nuclear integrity, DAPI staining) (THP-1 macrophages)	decrease in intracellular viable bacilli count compared to control (without inhibitor) ([1]; […], cell count on 10th day PI, THP-1 macrophages) [log difference]	reduction of bacilli count ([1]; in-vitro and ex-vivo conditions (summary statement)) [log cfu]	cell count reduction compared to bacilli grown under ammonia [2] [log difference]
[N-]=[N+]=[N-] [Azide]	~1.5	–	–	–	–
CS(=N)(=O)CC[C@H](N)C(=O)O (stereo partly drawn) [L-MSO, L-methionine sulfoximine]	~2.5	–	–	–	–
O=C(O)c1cc[c]([Hg][OH])cc1 [p-HMB, para-hydroxy mercuric benzoate]	–	without exhibiting any cytotoxic effects	~2	~2	~2.5
